The data set has as its system quagga mussels. Kind of data set: Molluscicidal effects of compounds isolated from Pseudomonas broth (live mussel jar-test bioassay, procedures of US 20100266717). It is filed as in vivo. The settings on record: Conc 16 μg/ml. The procedure: The culture broth derived from the 10-L fermentation P. fluorescens in FM2-growth media is first centrifuge to separate the cells pellet and supernatant. The supernatant and the cell pellet were extracted separately using Amberlite XAD-7 resin (Asolkar et al., 2006) by shaking the cell suspension/supernatant with resin at 225 rpm for two hours at room temperature. The resin and cell mass are collected by filtration through cheesecloth and washed with DI water to remove salts. The resin, cell mass, and cheesecloth are then soaked for 2 h in acetone/methanol (50/50) after which the acetone/methanol is filtered and dried under vacuum using rotary evaporator to give two separate crude extract.(one for supernatant and other for cell pellets). The crude extracts were then fractionated separately by using reversed-phase C18 vacuum liquid chromatography (H2O/CH3OH; gradient […] to 0:100%) to give 7 fractions. These fractions are then concentrated to dryness using rotary evaporator and the resulting dry residues are screened for biological activity using both a live mussel jar-test bioassay with quagga mussels as well as a cell-based assay with a freshwater snail embryo cell line (Biomphalaria glabrata). The active fractions are then subjected to reversed phase HPLC (Spectra System P4000 (Thermo Scientific) to give pure compounds, which are then screened in above mentioned bioassays to locate/identify the active compounds. To confirm the identity of the compound, additional spectroscopic data such as LC/MS and NMR is recorded.
The potency of compounds isolated from Pseudomonas broth is tested using procedures described in the US Patent Application Pub. No. 20100266717.

For the compound `CCCCCC/C=C/CCCCCCCC(=O)O` [9-hexadecenoic acid], the “% mortality 24 hr” value came to 20 ± 14.1%, the “% mortality 48 hr” value worked out at 25.5 ± 7.1%, the “% mortality 72 hr” value amounted to 30 ± 14.1% and the “% mortality 96 hr” value came out at 30 ± 14.1%.
For `CCCCCC[C@@H](O)C/C=C\CCCCCCCC(=O)O` [Ricinoleic acid, ricinoleic acid], the “% mortality 24 hr” value came to 20 ± 0%, the “% mortality 48 hr” value is on record as 20 ± 0%, the “% mortality 72 hr” value is on record as 20 ± 0% and the “% mortality 96 hr” value stood at 20 ± 0%.
